Results reported in patent US9238670B2, “Aminoglycoside antibiotics with reduced ototoxicity” (priority 2013, dated 2016).
Where two headings read alike, the source gives them in different places.

Legend:
[1] = system: hair cells of cochlea organ of corti cultures; experiment: in vitro
Method: For example, an ototoxicity test that can be used includes the steps of (1) treating organ of corti cultures with a compound of the invention and a parent aminoglycoside compound for a certain period of time (e.g., 1 hour), respectively; (2) washing and then culturing the treated tissue for some period of time (e.g., 2 days); (3) fixing and staining the tissue so that hair cell counts can be obtained; and (4) comparing the hair cell counts between the tissue treated by the compound of the invention and the tissue treated by the parent aminoglycoside compound.
Ototoxicity was also assayed using cochlea organ of corti cultures. The cultures were made at 4 days post birth (P4), cultured for 1 day and then treated for 1 hour with test compound. The tissue was then washed and cultured for an additional two days at which time the tissue is fixed and stained so that hair cell counts could be obtained. This method is similar to that used previously in characterizing aminoglycoside ototoxicity (Alharazneh et al., 2011). Fixed regions at the apex, middle, and base of the cochlea were imaged and cell counts obtained. […] Data were quantified across cochlear regions for this same compound. Quantification was by counting the number of outer hair cells present over a given distance. […] A dose response curve was created for the parent compound as well as the tested novel aminoglycoside. […] Other sisomicin derivatives were also tested for ototoxicity.

mouse [2] = conditions: in vivo
E. coli = E. coli assay of minimal inhibitory (MIC) and minimal bactericidal (MBC) concentrations; assay type: cell-based; conditions: FIGS. 1A and 1B
Method: FIGS. 1A and 1B are bar graphs showing antimicrobial activities of a variety of sisomicin derivatives (MS=methyl sulfonyl, PS=phenyl sulfonyl, BZ=benzoyl, SiRho=rhodamine; and 1N and 3″ indicate substituents' position on sisomicin). The negative values reflect an arbitrary value indicating no detectable level of activity.
Both antimicrobial activity and ototoxicity in several of the synthesized compounds were assessed. To test antimicrobial activity, an E. coli assay was used to test both minimal inhibitory concentrations (MIC) as well as minimal bactericidal concentrations (MBC). A cross section of results was presented in FIG. 1, for control and a variety of tested compounds. […] Antimicrobial activity remained stable for each compound over time.

mouse [3] = experiment: LD50 after intraperitoneal injection in mouse model; assay type: in vivo; conditions: FIG. 5

Compound: CN[C@@H]1[C@@H](O)[C@@H](O[C@@H]2[C@@H](O)[C@H](O[C@H]3OC(CN)=CC[C@H]3N)[C@@H](N)C[C@H]2NC(=O)c2ccccc2)OC[C@]1(C)O [1N benzoyl sisomicin, 1-benzoyl sisomicin]
- less toxic than sisomicin (ototoxicity) ([1]; 1 h): 30%

Compound: CN(C(=O)c1ccccc1)[C@@H]1[C@@H](O)[C@@H](O[C@@H]2[C@@H](O)[C@H](O[C@H]3OC(CN)=CC[C@H]3N)[C@@H](N)C[C@H]2N)OC[C@]1(C)O [3″N-benzoyl sisomicin, 3″-Benzoyl sisomicin]
- less toxic than sisomicin (ototoxicity) ([1]; 1 h): about 60%

Compound: CN([C@@H]1[C@@H](O)[C@@H](O[C@@H]2[C@@H](O)[C@H](O[C@H]3OC(CN)=CC[C@H]3N)[C@@H](N)C[C@H]2N)OC[C@]1(C)O)S(C)(=O)=O [3″N-methyl sulfonyl sisomicin, 3″-methylsulfonyl sisomicin]
- ototoxicity compared in words ([1]; 1 h): about equally non-ototoxic as 1N-methyl sulfonyl sisomicin

Compound: CN([C@@H]1[C@@H](O)[C@@H](O[C@@H]2[C@@H](O)[C@H](O[C@H]3OC(CN)=CC[C@H]3N)[C@@H](N)C[C@H]2NS(C)(=O)=O)OC[C@]1(C)O)S(C)(=O)=O [1N,3″N-methyl sulfonyl sisomicin, 1,3″-N-bis-methylsulfonyl sisomicin]
- ototoxicity compared in words ([1]; 1 h): about equally non-ototoxic as 1N-methyl sulfonyl sisomicin

Compound: CN([C@@H]1[C@@H](O)[C@@H](O[C@@H]2[C@@H](O)[C@H](O[C@H]3OC(CN)=CC[C@H]3N)[C@@H](N)C[C@H]2N)OC[C@]1(C)O)S(=O)(=O)c1ccccc1 [3″N-phenyl sulfonyl sisomicin, 3″-benzenesulfonyl-sisomicin]
- ototoxicity compared in words [1]: about equally ototoxic as sisomicin

Compound: CN[C@@H]1[C@@H](O)[C@@H](O[C@@H]2[C@@H](O)[C@H](O[C@H]3OC(CN)=CC[C@H]3N)[C@@H](N)C[C@H]2NS(=O)(=O)c2ccccc2)OC[C@]1(C)O [1N phenyl sulfonyl sisomicin, 1-Benzenesulfonyl-sisomicin]
- less toxic than sisomicin (ototoxicity) ([1]; 1 h): about 80%

Compound: CN[C@@H]1[C@@H](O)[C@@H](O[C@@H]2[C@@H](O)[C@H](O[C@H]3OC(CN)=CC[C@H]3N)[C@@H](N)C[C@H]2N)OC[C@]1(C)O [sisomicin, reference compound]
- hair cell loss in histological preparations of the cochlea (mouse [2]): significant hair cell loss
- Kd at 1 h [1]: 120 µM
- hair cells in stained tissue (FIG. 2) [1]: no hair cells remained
- outer hair cells killed, apex of cochlea ([1]; 1 h): about 60%
- outer hair cells killed, base and middle of cochlea ([1]; 1 h): more than 90%

Compound: CN([C@@H]1[C@@H](O)[C@@H](O[C@@H]2[C@@H](O)[C@H](O[C@H]3OC(CN)=CC[C@H]3N)[C@@H](N)C[C@H]2NS(=O)(=O)c2ccccc2)OC[C@]1(C)O)S(=O)(=O)c1ccccc1 [1N,3″N-phenyl sulfonyl sisomicin, 1,3″-dibenzenesulfonyl-sisomicin]
- ototoxicity compared in words [1]: about equally ototoxic as sisomicin

Compound: CN[C@@H]1[C@@H](O)[C@@H](O[C@@H]2[C@@H](O)[C@H](O[C@H]3OC(CN)=CC[C@H]3N)[C@@H](N)C[C@H]2NS(C)(=O)=O)OC[C@]1(C)O [1N-methyl sulfonyl sisomicin, 1-N-methylsulfonyl sisomicin]
- antimicrobial activity (MIC, MBC) (E. coli): retained antimicrobial activity
- LD50 relative to LD50 of the parent sisomicin (fold higher) (mouse [3]): 3 ×
- hair cell loss in histological preparations of the cochlea (mouse [2]): no loss of hair cells
- Kd at 1 h [1]: 1500 µM
- fold less toxic than the parent compound [1]: more than ten-fold shift in sensitivity for toxicity
- hair cell loss at any of the cochlea regions tested [1]: did not cause any hair cell loss
- hair cells in stained tissue (FIG. 2) [1]: no hair cell loss
- fold less toxic than the parent compound ([1]; 1 h): more than 10 ×
